Results: patent US20240270762A1, “PENICILLIN-BINDING PROTEIN INHIBITORS” (priority 2021, published 2024)

Molecular target: T1, PBP1a from Acinetobacter baumannii (ATCC 19606) (Acinetobacter baumannii, UniProt A0ABX6CK30)
T1 sequence (A0ABX6CK30 1-851): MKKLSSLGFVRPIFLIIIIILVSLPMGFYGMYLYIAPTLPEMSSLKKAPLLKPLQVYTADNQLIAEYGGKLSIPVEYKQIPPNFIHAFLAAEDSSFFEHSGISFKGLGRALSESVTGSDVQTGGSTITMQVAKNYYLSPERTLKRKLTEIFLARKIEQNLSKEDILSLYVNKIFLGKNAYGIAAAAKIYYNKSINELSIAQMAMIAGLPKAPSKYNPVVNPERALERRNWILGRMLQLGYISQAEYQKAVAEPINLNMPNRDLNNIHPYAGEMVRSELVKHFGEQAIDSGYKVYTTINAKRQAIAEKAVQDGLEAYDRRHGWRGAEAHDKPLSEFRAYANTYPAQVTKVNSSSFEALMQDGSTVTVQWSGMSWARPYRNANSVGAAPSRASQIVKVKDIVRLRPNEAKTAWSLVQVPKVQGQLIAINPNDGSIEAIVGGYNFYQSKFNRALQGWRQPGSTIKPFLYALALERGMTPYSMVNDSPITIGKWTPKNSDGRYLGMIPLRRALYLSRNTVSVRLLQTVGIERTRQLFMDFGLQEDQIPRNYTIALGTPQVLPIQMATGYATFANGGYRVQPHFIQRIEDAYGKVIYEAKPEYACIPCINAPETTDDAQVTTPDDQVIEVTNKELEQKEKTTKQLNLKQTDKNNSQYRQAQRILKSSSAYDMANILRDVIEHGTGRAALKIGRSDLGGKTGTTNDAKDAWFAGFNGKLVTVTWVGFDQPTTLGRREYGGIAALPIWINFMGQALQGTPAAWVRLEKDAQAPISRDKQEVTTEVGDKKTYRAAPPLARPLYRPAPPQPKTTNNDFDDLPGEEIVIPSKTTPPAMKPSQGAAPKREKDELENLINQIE
Test: Bocillin-FL fluorescence polarization competition binding, A. baumannii PBP1a
Details: fluorescence polarization competition binding assay using Bocillin-FL; read-out: A. baumannii PBP1a Potency
Procedure, shortened: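 Purified PBPs pre-incubated with inhibitor (E. coli PBP3 1.5 μM, 30 min; P. aeruginosa PBP3 0.75 μM, A. baumannii PBP1a 1 μM and PBP3 0.2 μM, 15 min), then Bocillin-FL 0.1 μM (0.05 μM for PBP1a) added; FP read up to 60 min. EC50 = concentration halving bound Bocillin-FL.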

Compound | IC50
O=C(O)c1c(F)ccc2c1OB(O)[C@@H](NC(=O)C(NC(=O)N1CCN(C3CCN(C(=O)Nc4cc(O)ccc4F)CC3)C(=O)C1=O)c1cc(F)c(O)c(O)c1Cl)C2 (stereo partly drawn) [Example 479, (3R)-3-(2-(2-chloro-5-fluoro-3,4-dihydroxyphenyl)-2-(4-(1-((2-fluoro-5-hydroxyphenyl)carbamoyl)piperidin-4-yl)-2,3-dioxopiperazine-1-carboxamido)acetamido)-7-fluoro-2-hydroxy-3,4-dihydro-2H-benzo[e][1,2]oxaborinine-8-carboxylic acid] | > 250 µM
O=C(O)c1c(F)ccc2c1OB(O)[C@@H](NC(=O)[C@H](NC(=O)N1CCN(C3CCN(C(=O)Nc4cccc(O)c4Cl)CC3)C(=O)C1=O)c1cc(F)c(O)c(O)c1Cl)C2 [Example 482, (R)-3-((R)-2-(4-(1-((2-chloro-3-hydroxyphenyl)carbamoyl)piperidin-4-yl)-2,3-dioxopiperazine-1-carboxamido)-2-(2-chloro-5-fluoro-3,4-dihydroxyphenyl)acetamido)-7-fluoro-2-hydroxy-3,4-dihydro-2H-benzo[e][1,2]oxaborinine-8-carboxylic acid] | > 250 µM
O=C(O)c1c(F)ccc2c1OB(O)[C@@H](NC(=O)[C@H](NC(=O)N1CCN(C3CCN(C(=O)Nc4ccc(F)c(O)c4)CC3)C1=O)c1cc(F)c(O)c(O)c1Cl)C2 (single isomer, unassigned) [Example 449] | > 250 µM
O=C(O)c1c(F)ccc2c1OB(O)[C@@H](NC(=O)[C@H](NC(=O)N1CCN(C3CCN(C(=O)Nc4c(F)ccc(O)c4F)CC3)C1=O)c1cc(F)c(O)c(O)c1Cl)C2 (single isomer, unassigned) [Example 454] | > 250 µM
O=C(O)c1c(F)ccc2c1OB(O)[C@@H](NC(=O)[C@H](NC(=O)N1CCN(C3CCN(C(=O)Nc4cc(O)cc(F)c4)CC3)C1=O)c1cc(F)c(O)c(O)c1Cl)C2 (single isomer, unassigned) [Example 450] | > 250 µM
O=C(O)c1c(F)ccc2c1OB(O)[C@@H](NC(=O)C(NC(=O)N1CCN(C3CCN(C(=O)Nc4cc(O)ccc4Cl)CC3)C(=O)C1=O)c1cc(F)c(O)c(O)c1Cl)C2 (stereo partly drawn) [Example 483, (3R)-3-(2-(2-chloro-5-fluoro-3,4-dihydroxyphenyl)-2-(4-(1-((2-chloro-5-hydroxyphenyl)carbamoyl)piperidin-4-yl)-2,3-dioxopiperazine-1-carboxamido)acetamido)-7-fluoro-2-hydroxy-3,4-dihydro-2H-benzo[e][1,2]oxaborinine-8-carboxylic acid] | > 250 µM
O=C(O)c1c(F)ccc2c1OB(O)[C@@H](NC(=O)[C@H](NC(=O)N1CCN(C3CCN(C(=O)Nc4cc(O)ccc4Cl)CC3)C1=O)c1cc(F)c(O)c(O)c1Cl)C2 (single isomer, unassigned) [Example 448] | > 250 µM
O=C(O)c1c(F)ccc2c1OB(O)[C@@H](NC(=O)C(NC(=O)N1CCN(C3CCN(C(=O)Nc4ccc(F)c(O)c4F)CC3)C1=O)c1cc(F)c(O)c(O)c1Cl)C2 (stereo partly drawn) [Example 452, (3R)-3-(2-(2-chloro-5-fluoro-3,4-dihydroxyphenyl)-2-(3-(1-((2,4-difluoro-3-hydroxyphenyl)carbamoyl)piperidin-4-yl)-2-oxoimidazolidine-1-carboxamido)acetamido)-7-fluoro-2-hydroxy-3,4-dihydro-2H-benzo[e][1,2]oxaborinine-8-carboxylic acid] | > 250 µM
O=C(O)c1c(F)ccc2c1OB(O)[C@@H](NC(=O)C(NC(=O)N1CCN(C3CCN(C(=O)Nc4ccc(F)c(O)c4)CC3)C(=O)C1=O)c1cc(F)c(O)c(O)c1Cl)C2 (stereo partly drawn) [Example 480, (3R)-3-(2-(2-chloro-5-fluoro-3,4-dihydroxyphenyl)-2-(4-(1-((4-fluoro-3-hydroxyphenyl)carbamoyl)piperidin-4-yl)-2,3-dioxopiperazine-1-carboxamido)acetamido)-7-fluoro-2-hydroxy-3,4-dihydro-2H-benzo[e][1,2]oxaborinine-8-carboxylic acid] | > 250 µM
